From ChEMBL document CHEMBL1201862, “PubChem BioAssay data set” (2004) come the findings set out here.

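Compound exposure: 48 hours, 5 concentrations, 96-well plates. Abbreviation: GI50, concentration required for 50% inhibition of growth.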 Active and inactive are the calls of the source. Cut-off read from the data, not from the text of the source: active = GI50 up to about 1.1 µM and inactive = higher.

Among the test systems are UACC-257; UO-31; NCI/ADR-RES; DU-145; UACC-62; NCI-H23; PC-3; MOLT-4; HOP-62; SF-539; OVCAR-8; EKVX; SK-MEL-2; SNB-19; SN12C; SW-620; CAKI-1; OVCAR-4; NCI-H226; CCRF-CEM.
Assay in all cases: DTP human tumour cell line panel, 48 h

Broadly, the GI50 is the concentration that inhibits growth by half.

As for `COc1cc(C2S/C(=C/c3ccccc3)C(=O)N2c2cc(Cl)c(Cl)cc2Cl)cc(OC)c1OC` (stereo not drawn), the GI50 in the assay with UACC-257 is 54.5 µM (inactive); with UO-31, 26.7 µM (inactive); in the assay with NCI/ADR-RES, 30.6 µM (inactive); with DU-145 it was 30.2 µM (inactive); in the assay on UACC-62, 27.5 µM (inactive); in the assay on NCI-H23 it was 43.2 µM (inactive). The GI50 is 26.8 µM (inactive) in the assay on PC-3; 25.2 µM (inactive) in the assay with MOLT-4; 28.4 µM (inactive) in the assay with HOP-62; 25.6 µM (inactive) in the assay on SF-539; 40 µM (inactive) in the assay with OVCAR-8; 9.66 µM (inactive) in the assay with EKVX. The GI50 was 41.3 µM (inactive) in the assay on SK-MEL-2; > 63.1 µM (inactive) in the assay with SNB-19; > 59.8 µM (inactive) in the assay with SN12C; 47.6 µM (inactive) with SW-620; > 40.8 µM (inactive) in the assay on CAKI-1; 52.6 µM (inactive) with OVCAR-4. Also, the GI50 in the assay with NCI-H226 is 20.6 µM (inactive); with CCRF-CEM it was 21.5 µM (inactive).
As for `O=C(O)CN(CC(=O)O)Cc1cc2c(cc1O)Oc1cc(O)c(CN(CC(=O)O)CC(=O)O)cc1C21OC(=O)c2ccccc21` [OFTASCEINE], the GI50 in the assay with UACC-257, in the assay on UO-31, in the assay on NCI/ADR-RES, in the assay with DU-145, in the assay on UACC-62 and with NCI-H23 was > 100 µM (inactive) throughout. For the same compound, the GI50 with PC-3, with MOLT-4, in the assay with HOP-62, with SF-539, with OVCAR-8 and in the assay on EKVX was > 100 µM (inactive) in each case. Besides, the GI50 in the assay on SK-MEL-2, in the assay with SNB-19, in the assay on SN12C, in the assay on SW-620, in the assay with CAKI-1 and with OVCAR-4 was > 100 µM (inactive) throughout. Besides, the GI50 in the assay on NCI-H226 and with CCRF-CEM was > 100 µM (inactive) throughout.
Regarding `CCN(CC)Cc1cc(/N=N\c2c(O)ccc3c(/N=N\c4ccc(O)c(CN(CC)CC)c4)c(O)ccc23)ccc1O`, the GI50 with UACC-257 was 5.75 µM (inactive); with UO-31, 2 µM (inactive); in the assay with NCI/ADR-RES it was 4.57 µM (inactive); in the assay with DU-145, 2.65 µM (inactive); with UACC-62, 4.41 µM (inactive); in the assay on NCI-H23 it was 3.56 µM (inactive). In addition, the GI50 with PC-3 was 5.11 µM (inactive); in the assay with MOLT-4 it was 1.13 µM (inactive); with HOP-62, 2.79 µM (inactive); with SF-539, 2.73 µM (inactive); in the assay with OVCAR-8, 2.12 µM (inactive); in the assay with EKVX, 4.56 µM (inactive). Further, the GI50 was 12.6 µM (inactive) with SK-MEL-2; 3.86 µM (inactive) with SNB-19; 3.92 µM (inactive) with SN12C; 3.29 µM (inactive) with SW-620; 2.1 µM (inactive) in the assay with CAKI-1; 1.77 µM (inactive) in the assay with OVCAR-4. Also, the GI50 in the assay with NCI-H226 was 4.54 µM (inactive); in the assay on CCRF-CEM it was 2.44 µM (inactive).
For `COc1cc(NCc2ccc3nc(-c4ccccc4)c(N)nc3c2)cc(OC)c1OC`, the GI50 in the assay with UACC-257 was 22.7 µM (inactive); in the assay with UO-31, 29.2 µM (inactive); in the assay with NCI/ADR-RES, 22.2 µM (inactive); in the assay with DU-145 it was 36.6 µM (inactive); in the assay on UACC-62 it was 29.4 µM (inactive); with NCI-H23 it was 21.4 µM (inactive). The GI50 was 28.2 µM (inactive) in the assay on PC-3; 23.3 µM (inactive) in the assay with MOLT-4; 43.8 µM (inactive) in the assay on HOP-62; 29.7 µM (inactive) in the assay with SF-539; 27.7 µM (inactive) with OVCAR-8; 33.2 µM (inactive) in the assay with EKVX. Also, the GI50 with SK-MEL-2 is 31 µM (inactive); in the assay on SNB-19, 46.2 µM (inactive); in the assay on SN12C, 38.5 µM (inactive); with SW-620, 48.5 µM (inactive); with CAKI-1, 28.8 µM (inactive); in the assay with OVCAR-4, 29.3 µM (inactive). The GI50 in the assay with NCI-H226 is 27.5 µM (inactive); in the assay on CCRF-CEM, 31.6 µM (inactive).
For the compound `O=C1CSC(c2ccccc2O)N1c1ccc(-n2c(-c3ccccc3)nc3ccccc3c2=O)cc1` (stereo not drawn), the GI50 is 26.7 µM (inactive) in the assay on UACC-257; 18.9 µM (inactive) in the assay on UO-31; 21 µM (inactive) in the assay with NCI/ADR-RES; 29.2 µM (inactive) with DU-145; 21.5 µM (inactive) with UACC-62; 31.6 µM (inactive) with NCI-H23. The GI50 is 12.9 µM (inactive) in the assay on PC-3; 13.2 µM (inactive) with MOLT-4; 20.6 µM (inactive) in the assay on HOP-62; 16.6 µM (inactive) with SF-539; 24.3 µM (inactive) in the assay with OVCAR-8; 24.3 µM (inactive) in the assay with SK-MEL-2. The GI50 in the assay with SNB-19 was 27.3 µM (inactive); in the assay with SN12C, 30.3 µM (inactive); with SW-620, 29.7 µM (inactive); with CAKI-1, 29.2 µM (inactive); in the assay with OVCAR-4 it was 30.4 µM (inactive); in the assay on NCI-H226 it was 25 µM (inactive). Further, the GI50 in the assay with CCRF-CEM is 14.7 µM (inactive).
As for `Cc1nc2ccc(Cl)cc2c2c1CCS2`, the GI50 was 97.7 µM (inactive) with UACC-257; 4.09 µM (inactive) with UO-31; 51.4 µM (inactive) with NCI/ADR-RES; 91.2 µM (inactive) with DU-145; 99.8 µM (inactive) in the assay with UACC-62; 75 µM (inactive) in the assay on NCI-H23. Also, the GI50 in the assay with PC-3 is 36.6 µM (inactive); in the assay with MOLT-4, 19.5 µM (inactive); in the assay on HOP-62, > 100 µM (inactive); in the assay with SF-539 it was 87.5 µM (inactive); with OVCAR-8, 92 µM (inactive); in the assay with SK-MEL-2, 57.9 µM (inactive). Further, the GI50 is > 100 µM (inactive) in the assay with SNB-19; 42 µM (inactive) with SN12C; > 100 µM (inactive) in the assay with SW-620; 55.2 µM (inactive) in the assay with CAKI-1; 26.8 µM (inactive) with OVCAR-4; 51.6 µM (inactive) in the assay on NCI-H226. Also, the GI50 in the assay with CCRF-CEM is 46 µM (inactive).
Consider `CCN(CC)C(=S)N/N=C(/c1ccccc1)c1ccccn1`, for which the GI50 is 0.107 µM (active) with UACC-257; 0.459 µM (active) in the assay on UO-31; 0.27 µM (active) in the assay with NCI/ADR-RES; 0.402 µM (active) in the assay on DU-145; 0.267 µM (active) in the assay on NCI-H23; 0.212 µM (active) with PC-3. For the same compound, the GI50 in the assay on MOLT-4 was < 0.0507 µM (active); in the assay with HOP-62 it was 0.292 µM (active); with SF-539, 0.343 µM (active); in the assay on OVCAR-8 it was 0.0362 µM (active); with EKVX, 0.583 µM (active); in the assay with SK-MEL-2 it was 0.711 µM (active). The GI50 in the assay on SNB-19 was 2.84 µM (inactive); in the assay on SN12C it was 0.214 µM (active); with SW-620, 0.121 µM (active); in the assay on CAKI-1 it was 0.805 µM (active); with OVCAR-4, 0.504 µM (active); in the assay with NCI-H226, 1.66 µM (inactive). In addition, the GI50 in the assay on CCRF-CEM is 0.024 µM (active).
For the compound `NC(=O)c1cc2ccccc2o/c1=N/c1ccccc1`, the GI50 in the assay on UACC-257, in the assay with NCI/ADR-RES, in the assay on DU-145, with UACC-62, in the assay with NCI-H23 and with PC-3 was > 100 µM (inactive) each time. For the same compound, the GI50 in the assay on MOLT-4, in the assay with HOP-62, in the assay with SF-539, with OVCAR-8, in the assay with EKVX and in the assay with SK-MEL-2 was > 100 µM (inactive) in each case. For the same compound, the GI50 with SNB-19, in the assay on SN12C, with SW-620, in the assay on CAKI-1, in the assay with OVCAR-4 and in the assay with NCI-H226 was > 100 µM (inactive) throughout. Further, in the assay on CCRF-CEM, the GI50 was > 100 µM (inactive).
Regarding `CCOC(=O)n1c(=O)nc2c3c(ncn21)Oc1c(c(-c2ccccc2)nn1-c1ccccc1)C3c1ccc(Cl)cc1` (stereo not drawn), the GI50 was 1.8 µM (inactive) with UACC-257; 1.49 µM (inactive) in the assay on UO-31; 1.73 µM (inactive) with NCI/ADR-RES; 1.71 µM (inactive) in the assay on DU-145; 1.7 µM (inactive) in the assay with UACC-62; 1.69 µM (inactive) in the assay on NCI-H23. Further, the GI50 is 1.73 µM (inactive) in the assay with PC-3; 1.77 µM (inactive) in the assay on HOP-62; 1.56 µM (inactive) in the assay with SF-539; 1.69 µM (inactive) in the assay on OVCAR-8; 1.84 µM (inactive) in the assay with SK-MEL-2; 1.61 µM (inactive) with SNB-19. Moreover, the GI50 in the assay on SN12C was 1.82 µM (inactive); in the assay with SW-620, 1.71 µM (inactive); in the assay with CAKI-1 it was 1.61 µM (inactive); in the assay with OVCAR-4, 1.15 µM (inactive); with NCI-H226, 1.63 µM (inactive); in the assay with CCRF-CEM, 1.1 µM (active).
For the compound `OC[C@H]1O[C@@H](Oc2cc(O)cc(/C=C/c3ccc(O)cc3)c2)[C@H](O)[C@@H](O)[C@@H]1O` [PICEID], the GI50 in the assay with UACC-257, in the assay on UO-31, in the assay on NCI/ADR-RES, with DU-145, in the assay with UACC-62 and with PC-3 was > 100 µM (inactive) throughout. Moreover, the GI50 in the assay on MOLT-4, in the assay on HOP-62, in the assay with SF-539, with OVCAR-8, in the assay with EKVX and in the assay with SK-MEL-2 was > 100 µM (inactive) in each case. Also, the GI50 with SNB-19, in the assay on SN12C, in the assay on SW-620, in the assay on CAKI-1, with OVCAR-4 and in the assay with NCI-H226 was > 100 µM (inactive) throughout. Further, the GI50 in the assay on CCRF-CEM was > 100 µM (inactive).
